Entries after “also recorded” stand apart in the source; their conditions may differ. Values belong to the substance of their own block, whether it stands above or below them.
Key:
[1] = system: receptors in the heart vasculature; test: Binding of homing peptides to receptors in heart vasculature versus other organs; design: species or system mammal; conditions: for binding to receptors on other organs (than heart, or heart and brain): organ selectivity; for binding to BDNF receptor(s) in the vasculature of older hearts: usually trkB, more commonly truncated trkB
myocardial infarction = test: Intramyocardial TNFα followed by coronary occlusion: myocardial necrosis, apoptosis, mortality; assay type: in vivo, F344 rats
Description: (§1) FIG. 5. Aging-associated alterations in TNFα cardioprotection. (A) Representative immunostaining for PDGF-B in rat hearts injected with TNFα or PBS vehicle 24 h prior to sacrifice. (B) Quantification of PDGF-B density in the injected hearts (n=3, each group). (C) Representative cardiac histology after coronary occlusion: Mason's trichrome staining for myocardial necrosis (14 day post-coronary occlusion) in 4- and 24-month old rat hears treated with PBS (4- and 24-month old, n=4 and 10, respectively) and TNFα (4-month old, n=4); and (D) tunnel staining for apoptosis (DAB) with hematoxylin counter stain (2 day post-coronary occlusion) in 24-month old hearts treated with TNFα (n=10; 80% mortality vs. PBS 0%; p<0.05). (E) Quantification of myocardial necrosis in rat hearts 14 day post-coronary occlusion.
(§2) To examine the age-dependent effects of TNFα PDGF-B expression and protection from myocardial necrosis, sets of 4- and 24-month old F344 rats received intramyocardial injections of growth factor.

[2] = system: cardiac microvascular endothelial cells (CMECs); test: PDGF-B induction (RT-PCR) after TNFα treatment of cultured CMECs; assay type: cell-based, F344 rats; conditions: 4-month old rat CMECs, TNFα 30 ng/ml, 3 hr
Excerpt: FIG. 4. Aging-associated alterations in cardiac microvascular TNFα receptor pathways. (A) Representative immunostaining for TNF receptor 1 and 2 in the subepicardium and subendocardium of 3- and 18-month old murine hearts. (B) TNF receptor 1 and 2 densities in the subendocardium of 3- and 18-month old murine hearts (n=3, each). (C) RT-PCR for PDGF-B induction after TNFα treatment of 4- and 24-month old rat CMECs.
The functional significance of the changes in TNF receptor in the aging cardiac microvasculature was examined in vitro. Cardiac microvascular endothelial cells (CMECS) of 4 and 24-month old F344 rats were isolated and cultured. Briefly, the hearts were removed and minced in endothelial cell medium (DMEM containing 20% FBS, 1% endothelial cell growth factor, 1% endothelial cell growth supplement, 1% BME, 10^−4% heparin and 1% penicillin [10,000 I.U./ml]/streptomycin [10,000 μg/ml]), and digested with medium containing 0.2% collagenase and 0.005% Dnase, and 5% FBS for 45 minutes with subsequent endothelial cells isolation by PECAM-mediated magnetic particle collection (Dynabeads). The resultant CMECs (Dil-LDL uptake>95%) were cultured for 2 passages and seeded into 12-well culture dish (10^5 cells/well) and grown to confluence. Medium was changed to serum free-DMEM for 1 hr and then to medium containing 2% FBS+TNFα (30 ng/ml) for 3 hr.

PDGF-B = test: Intramyocardial injection of TNFα: PDGF-B immunostaining in hearts; assay type: in vivo, F344 rats; conditions: 100 ng intramyocardial, 24 h
Description: as §1, §2

- binding to receptors on other organs (than heart, or heart and brain) [1]: does not bind significantly
- binding capacity to TNF receptor(s) in vasculature of young versus older hearts ([1]; young vs older hearts): more binding capacity
Substance: QAQGQLV

Substance: TNFα: tumor necrosis factor α, growth factor injected intramyocardially or added to CMECs (NPQAEGQLQV)
- extent of myocardial infarction in young hearts (myocardial infarction; 4-month old rats, 14 day post-coronary occlusion): markedly reduced
- apoptosis in older hearts (myocardial infarction; 24-month old rats, anterior left ventricular wall, 2 day post-coronary occlusion): extensive apoptosis; also recorded: induced apoptosis
- mortality in older rats (myocardial infarction; 24-month old rats, within 72 h of coronary occlusion): 80%
- PDGF-B expression in CMECs from young hearts [2]: induced
- PDGF-B in young hearts in vivo (PDGF-B; 4-month old rats): specifically induced increase
- PDGF-B in aging hearts in vivo (PDGF-B; 24-month old rats): minimal effect

- binding to BDNF receptor(s) in the vasculature of older hearts [1]: bind
- binding to receptors on other organs (than heart, or heart and brain) [1]: do not bind significantly
Substance: ARRGQAV

- binding to BDNF receptor(s) in the vasculature of older hearts [1]: bind
- binding to receptors on other organs (than heart, or heart and brain) [1]: do not bind significantly
Substance: GRRFIRV

From patent US7910694B2, “Homing peptides to receptors of heart vasculature” (Cornell Research Foundation, Inc., priority 2002, dated 2011)
